Entries after “also recorded” stand apart in the source; their conditions may differ.
Assays:
RAEC monolayers [1] = assay: TJ protein dissociation from ZO-1 (co-IP with ZO-1 as bait) in stretched RAEC monolayers; format: cell-based, rat; settings: RAECs, 10 min of cyclic stretch
From the text: In the extracellular domain, the TJ is composed of claudins and occludin bound to TJ proteins of neighboring cells. In the intracellular domain, the claudins and occludin bind to actin via ZO-1. […] The present study tests the hypothesis that TJ dissociation between the ZO1 and the claudins and occludin is the primary causal mechanism for HER2-HER3 mediated barrier disruption. As preliminary evidence, RAEC monolayers (N=4) that were pretreated with NRG1 cleavage inhibitor TAPI-2, HER2 inhibitor AG825, or vehicle (VC) were stretched. […] The present study also confirmed stretch-induced TJ protein dissociation in lung slices.
(§1) each outcome measure, at each timepoint), at 0, 25, 37% ASA. To assess the effects of a longer stretch duration, RAEC monolayers from additional isolations (n=7 rats) were also subjected to cyclic stretch ASA of 0% (control) or 25% for 6 hrs. For every isolation, functional relationships will be confirmed in unstretched and stretched control groups treated with AG825 (HER2 inhibitor), anti-HER3ab (HER3 inhibitor), and tempol or tiron (superoxide scavenger), and compared with unstretched RAEC and PCLS treated with PMA to activate HER3 via NRG1 shedding as a positive control. In RAECs, results were compared to stretched and unstretched monolayers with separate treatments to evaluate downstream signaling pathway inhibition of ERK (U0126), PI3K (Wortmannin), Rac1 (EHT-1864 and ERK 1/2 siRNA [97] and LIMK1 (BMS4). Additional groups had NRG1 expression decreased by overexpressing miRNA-15b (negative regulator of NRG1), using scrambled oligonucleotide as a negative control. As a validation of or hierarchical platform, TJ expression, phosphorylation and arrangement results in PCLS were compared with RAECs. In all groups, monolayers were assigned to one of four quantitative outcome evaluations: alveolar paracellular permeability via BODIPY-oubain and streptavidin-FITC methods (see INNOVATION—Appendix I), TJ and actin arrangement by fixing RAECs and PCLSs for qualitative immunofluorescence, total and phosphorylated TJ content via Western blot, or ZO-1-bound TJ proteins by isolating protein for co-IP using ZO-1 as bait, followed by Western blotting for occludin, claudins 4, 7, and 18, and F-actin in the ZO-1 protein fraction.

rodent model of VILI = assay: In vivo rodent model of VILI (large tidal volume mechanical ventilation); parameters: species or system rat; settings: rats, Vt=25 ml/kg for 4 hrs, PEEP=0, AG825 1.67 mg/kg/day IP, 3 days
Procedure: Ventilated rats received one of […] treatments, intratracheal TAPI2 (used in vivo to inhibit NRG1 sheddase ADAM17) or […] AG825 or intravenous trastuzumab (to inhibit HER2), or will serve as ventilated vehicle-treated controls. Treatment windows were varied from 3 days prior ventilation to concurrent application, to identify an optimal, clinically-relevant therapeutic dose and timing. Dynamic compliance will be measured every 30 min. All animals were injected with FITC-albumin prior to ventilation, and alveolar permeability assessed prior to sacrifice by quantifying fluorescence of bronchoalveolar lavage (BAL) fluid normalized to serum fluorescence. Lungs were formalin-fixed after BAL, and hematoxylin/eosin stained sections were evaluated for hyaline membrane formation, interstitial edema, margination and infiltration of neutrophils, as well as intra-alveolar and perivascular hemorrhage. Compliance, permeability, and lung histology were compared across groups.

RAEC monolayers [2] = assay: Stretch-associated permeability of RAEC monolayers (cyclic stretch); format: cell-based, rat; settings: 10 min of stretch; for stretch-associated permeability: pretreated, vs vehicle controls
Procedure: As evidence that NRG1, HER2, and HER3 regulate stretch-associated increases in permeability, RAEC monolayers (N≥3-7/group) were exposed to 10 min of stretch, and compared vehicle controls (VC, black bars, FIG. 16—Appendix I) with those pretreated microRNA miR15-b to reduce NRG1 expression (FIG. 7, APPROACH—Appendix I), TAPI2 to inhibit ADAM17 and NRG1 cleavage (diagonal striped bars, FIG. 16—Appendix I), HER3 mAb to inhibit NRG1 binding (dark gray bars), or AG825 (white bars) to inhibit HER2 activation.
as §1, with “For every isolation, functional relationships will be confirmed in unstretched and stretched control groups treated with AG825 (HER2 inhibitor), anti-HER3ab (HER3 inhibitor), and tempol or tiron (superoxide scavenger), and compared with unstretched RAEC and PCLS treated with PMA to activate HER3 via NRG1 shedding as a positive control.” left out

[3] = system: mice treated with bleomycin to induce lung injury; settings: relative to untreated mice; cited from earlier work

| SMILES | TJ dissociation with stretch (RAEC monolayers [1]) | levels of TJ bound to ZO-1 after stretch vs unstretched controls (RAEC monolayers [1]) | protection against VILI (rodent model of VILI) | lung compliance (rodent model of VILI; 1.67 mg/kg/day) | permeability (barrier properties) in vivo (rodent model of VILI; 1.67 mg/kg/day) | barrier properties vs. unstretched VC (RAEC monolayers [2]) | stretch-associated permeability (RAEC monolayers [2]) | alveolar protein content [3] |
| --- | --- | --- | --- | --- | --- | --- | --- | --- |
| COc1cc(/C=C(\C#N)C(N)=O)cc(CSc2nc3ccccc3s2)c1O [AG825] | reduces stretch-induced tight junction dissociation; also recorded: prevented | equal or greater after stretch than unstretched controls | dramatically protects against VILI | preserves lung compliance; also recorded: significant improvements in lung compliance | preserves barrier properties/moderates unwanted permeability; also recorded: significant improvements in lung compliance and permeability | maintained barrier properties at unstretched levels | significantly reduced stretch-associated permeability |  |
| CC(C)C[C@H](CC(=O)NO)C(=O)N[C@H](C(=O)N[C@@H](C)C(=O)NCCN)C(C)(C)C [TAPI2] | reduces stretch-induced tight junction dissociation; also recorded: prevented | equal or greater after stretch than unstretched controls |  |  |  |  | significantly reduced stretch-associated permeability | decreased alveolar protein content |

— patent US11708422B2, “Mitigation of lung injury” (The Trustees Of The University Of Pennsylvania, priority 2016, dated 2023)
